Measurements reported in US10954300B2, “Use of pentoxifylline with immune checkpoint-blockade therapies for the treatment of melanoma” (THE TRUSTEES OF COLUMBIA UNIVERSITY IN THE CITY OF NEW YORK, priority 2015, dated 2021).
“Also recorded” adds a separate entry of the source.

Legend:
c-Rel [1] = biological target: T1, c-Rel (Homo sapiens, UniProt Q04864); details: cited from earlier work
T1 construct: host or cells: T cells
T1 sequence (Q04864 1-619): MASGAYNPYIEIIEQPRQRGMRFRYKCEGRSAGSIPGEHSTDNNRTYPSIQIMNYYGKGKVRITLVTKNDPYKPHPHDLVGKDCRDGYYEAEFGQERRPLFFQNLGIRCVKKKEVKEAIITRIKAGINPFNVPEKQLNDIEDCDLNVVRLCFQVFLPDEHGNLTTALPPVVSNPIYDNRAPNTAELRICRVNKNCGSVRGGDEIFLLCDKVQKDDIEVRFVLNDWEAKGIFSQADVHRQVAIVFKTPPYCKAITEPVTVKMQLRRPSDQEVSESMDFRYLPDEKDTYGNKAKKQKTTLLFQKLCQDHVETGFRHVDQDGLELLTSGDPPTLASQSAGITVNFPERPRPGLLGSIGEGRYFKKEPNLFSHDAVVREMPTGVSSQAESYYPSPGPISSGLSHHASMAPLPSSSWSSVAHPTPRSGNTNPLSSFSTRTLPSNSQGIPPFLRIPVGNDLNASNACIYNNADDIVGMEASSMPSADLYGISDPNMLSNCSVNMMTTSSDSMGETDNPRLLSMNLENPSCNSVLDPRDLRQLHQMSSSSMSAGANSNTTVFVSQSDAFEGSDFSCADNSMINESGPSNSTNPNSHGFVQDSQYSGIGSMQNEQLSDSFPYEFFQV

B16F1 cells = test: B16F1 tumor growth in immunodeficient mice; assay type: in vivo, RAG1−/− mice; details: PTXF vs PBS
Protocol: 5×10^4 B16F1 or 5×10^5 CT-26 or BRAF^[…]^-/- cells diluted in sterile PBS1X were injected subcutaneously into the shaved flank of each mouse. For metastasis experiments, 2.5×10^4 B16F10 cells were injected intravenously in the tail vein. […] Anti-PD-1 (RMP1-14), anti-PD-L1 (10F.9G2) and anti-CD8 (YTS.169-4) mAbs were obtained from BioXCell. Rat IgG isotype control was from R&D Systems.

c-Rel [2] = biological target: T2, c-Rel (Mus musculus, UniProt P15307); test: Western blot on PTXF-treated Treg cells; assay type: cell-based, mice; details: Treg cells stimulated with anti-CD3/CD28 and mIL-2, 500 μg/mL PTXF
T2 construct: CD4+GFP+ Treg cells were sorted form Foxp3eGFP spleens; endogenous in cells; host or cells: primary splenic CD4+Foxp3+ Treg cells from reporter mice
T2 sequence (P15307 whole entry): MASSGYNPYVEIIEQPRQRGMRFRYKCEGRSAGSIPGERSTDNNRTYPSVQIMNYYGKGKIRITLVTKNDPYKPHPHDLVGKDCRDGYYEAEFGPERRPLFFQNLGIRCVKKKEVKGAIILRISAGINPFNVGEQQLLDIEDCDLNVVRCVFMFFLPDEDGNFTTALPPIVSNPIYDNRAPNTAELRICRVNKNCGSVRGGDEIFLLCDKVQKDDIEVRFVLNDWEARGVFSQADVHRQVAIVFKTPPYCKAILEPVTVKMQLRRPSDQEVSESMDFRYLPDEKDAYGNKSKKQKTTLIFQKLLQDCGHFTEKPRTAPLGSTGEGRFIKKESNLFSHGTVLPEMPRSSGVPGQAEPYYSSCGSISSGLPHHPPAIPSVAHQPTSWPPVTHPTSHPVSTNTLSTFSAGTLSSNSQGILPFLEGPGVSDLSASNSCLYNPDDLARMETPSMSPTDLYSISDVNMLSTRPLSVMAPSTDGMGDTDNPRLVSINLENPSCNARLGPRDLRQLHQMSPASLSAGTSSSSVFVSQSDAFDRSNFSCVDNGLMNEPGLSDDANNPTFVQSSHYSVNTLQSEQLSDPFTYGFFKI
Protocol: Total cells suspensions were then activated with 5 μg/mL plate-coated anti-mCD3, 1 μg/ml soluble anti-mCD28 (BioLegend) and 10 ng/mL mIL-2, overnight at 37 C. Treg cells were then washed for further use.
Total lysates were extracted using RIPA buffer and protease inhibitors with SDS. 20 μg (micrograms) protein extracts were ran in polyacrylamide gels and transferred onto PVDF membranes. Membranes were incubated with anti-p65, c-Rel (Santa-Cruz) and GAPDH (Fitzgerald) Abs, followed HRP-coupled secondary Abs.

B16F1 melanoma cells [3] = test: qPCR on total tumor RNA at D16, early PTXF treatment; assay type: in vivo, C57Bl/6J mice
Description: Total RNA was extracted using a Qiagen Rneasy Mini Kit with DNase treatment. For qPCR, RNA was reverse transcribed by Superscript III (Invitrogen). cDNAs were used for PCR with SYBR Green reagents (Quanta Biosciences, Gaithersburg, Md.) on a C1000 Touch thermal cycler (Bio Rad, Hercules, Calif.). The data was normalized to GAPDH expression.

B16F1 melanoma cells [4] = test: Established B16F1 melanoma, PTXF with or without checkpoint-blockade mAb; assay type: in vivo, C57Bl/6 WT mice; details: for tumor size / tumor growth (growth curves): PTXF 50 mg/kg and/or anti-PD-1 mAb from D5-D6, vs control
Protocol: Pentoxifylline (Sigma) powder was dissolved in PBS1X and sterile filtered prior to each injection. For the early regimen of pentoxifylline treatment, mice were injected intra-peritoneally with 50 mg/kg pentoxifylline diluted in 100 μL PBS1X at days 0, 1, 2, 3, 5, 7, and 9. For the “curative” regimen, mice were treated daily from day 5-6 (when the tumor was visible and palpable) to day 11, following the same methods. IT-603 was reconstituted in DMSO and stored at −80° C. It then was diluted in PBS1X and sterile-filtered prior to each injection. Mice were injected intra-peritoneally with 10 mg/kg […] diluted in 100 μL PBS1X at days 0, 1, 2, 3, 5, 7 and 9.
Anti-PD-1 antibody (clone RMP1-14, BioXCell®) or isotype control (polyclonal IgG, BioXCell®) is available commercially. The antibodies were aliquoted in sterile PBS1X and stored at −80° C. until use. Mice are injected intra-peritoneally with […] of anti-PD-1 or isotype antibody, diluted in 100 μL sterile PBS1X at days 6, 8 and 10. All injections are performed using a 27.5 gauge needle, following the standard precautions.
5×10^4 B16F1 or 5×10^5 CT-26 or BRAF^CAPten^−/− cells diluted in sterile PBS1X were injected subcutaneously into the shaved flank of each mouse. For metastasis experiments, 2.5×10^4 B16F10 cells were injected intravenously in the tail vein. […] Anti-PD-1 (RMP1-14), anti-PD-L1 (10F.9G2) and anti-CD8 (YTS.169-4) mAbs were obtained from BioXCell. Rat IgG isotype control was from R&D Systems. […] In FIG. 11A-11G, Balb/c mice harboring CT-26 tumors received a suboptimal dose of 100 μg of anti-PD-1.
Tumor growth was monitored daily.

B16F1 melanoma cells [5] = test: Flow cytometry of tumor infiltrates (TILs) at D16, early PTXF treatment; assay type: in vivo, C57Bl/6J mice
Protocol: Cells were isolated from thymus, spleen and lymph nodes by mechanical desegregation in PBS+ FBS 3%. For tumor-infiltrating cell suspensions, total tumors were digested in DMEM (Gibco) supplemented with 1 mg/ml collagenase type IV (Sigma) and 1 mg/ml DNase I (Sigma) for 40 minutes at 37° C., followed by centrifugation in a 36% Percoll solution. For intracellular cytokines analyses, cell suspensions were incubated 3 hours with PMA (Sigma, 50 ng/mL), ionoymycin (Sigma, 1 μg/mL) in the presence of Golgi Plug (BD), or incubated 4 hours with mitomycin C-treated WT splenocytes loaded with 10 mg/mL gp100/pmel 17 peptide (Neo Biolab) in the presence of Golgi Plug. Cells were then stained with mAbs purchased by eBioscience or Tonbo Bioscience. Foxp3 and cytokine staining were performed using the eBioscience kit and protocol. Cells were acquired on a LSR II (BD Biosciences) and analyzed with FlowJo (Tree Star) software.

p65 = test: Western blot on PTXF-treated Treg cells; assay type: cell-based, mice; details: Treg cells stimulated with anti-CD3/CD28 and mIL-2, 500 μg/mL PTXF
Protocol: Total cells suspensions were then activated with 5 μg/mL plate-coated anti-mCD3, 1 μg/ml soluble anti-mCD28 (BioLegend) and 10 ng/mL mIL-2, overnight at 37 C. Treg cells were then washed for further use. Total lysates were extracted using RIPA buffer and protease inhibitors with SDS. 20 μg (micrograms) protein extracts were ran in polyacrylamide gels and transferred onto PVDF membranes. Membranes were incubated with anti-p65, c-Rel (Santa-Cruz) and GAPDH (Fitzgerald) Abs, followed HRP-coupled secondary Abs.

## CC(=O)CCCCn1c(=O)c2c(ncn2C)n(C)c1=O [PTXF, 1-(5-oxohexyl)-3,7-dimethylxanthine]
c-Rel [1]
  levels of c-Rel activation in T cells in vitro: reduces the levels of c-Rel activation
B16F1 cells
  tumor growth in immunodeficient background: no effect on tumor growth
c-Rel [2]
  c-Rel protein: significant reduction of c-Rel protein
B16F1 melanoma cells [3]
  inflammatory response (activated T-cell markers and cytokines) in total tumors: dramatic enhancement of the inflammatory response
B16F1 melanoma cells [3]; minor and non-significant
  increase of Ccl22 mRNA: 1.2 ×
B16F1 melanoma cells [4]
  tumor size / tumor growth (growth curves): did not change the growth curves; also recorded: did not significantly reduce tumor size
B16F1 melanoma cells [4]; listed as pentoxifylline
  tumor size / tumor growth (growth curves): did not significantly reduce tumor size
B16F1 melanoma cells [4]; PTXF and/or anti-PD-L1 mAb
  tumor growth, anti-PD-L1 instead of anti-PD-1: did not affect tumor growth
B16F1 melanoma cells [5]
  CD44 and Ki67 expression on CD4+ Tconv TILs: increased
  infiltration of total T cells and IFN-γ-producing CD4 and CD8 T-cells into the tumors: increase in infiltration
  proportion of Treg cells in tumor infiltrates: decrease in the proportion of Treg cells
p65
  levels of p65: unchanged
